This test deals with panel of 290 distinct kinases (321 in the larger panel), excluding mutant variants. The note with it: no asterisk: panel of 290 distinct kinases.

As for `COCCOc1cc2ncnc(Oc3cccc(NC(=O)Nc4cc(C(C)(C)C)nn4-c4ccc(C)cc4)c3)c2cc1OC` [Ex 276, 1-(3-tert-butyl-1-p-tolyl-1H-pyrazol-5-yl)-3-(3-(6-methoxy-7-(2-methoxyethoxy)quinazolin-4-yloxy)phenyl)urea], the S35 entry is on record as “D (D > 0.40)”.

Regarding `COCCOc1cc2ncnc(Sc3cccc(NC(=O)Nc4cc(C(C)(C)C)nn4-c4ccc(C)cc4)c3)c2cc1OC` [Ex 277, 1-(3-tert-butyl-1-p-tolyl-1H-pyrazol-5-yl)-3-(3-(6-methoxy-7-(2-methoxyethoxy)quinazolin-4-ylthio)phenyl)urea], the S35 result is “D (D > 0.40)”.

As to `COc1cc2ncnc(Oc3cccc(NC(=O)Nc4cccc(C(C)(C)C#N)c4)c3)c2cc1OC` [Ex 278, 1-(3-(2-cyanopropan-2-yl)phenyl)-3-(3-(6,7-dimethoxyquinazolin-4-yloxy)phenyl)urea], the S35 entry is “C (0.20 < C ≦ 0.40)”.

With `COc1cc2ncnc(Sc3cccc(NC(=O)Nc4cccc(C(C)(C)C#N)c4)c3)c2cc1OC` [Ex 279, 1-(3-(2-cyanopropan-2-yl)phenyl)-3-(3-(6,7-dimethoxyquinazolin-4-ylthio)phenyl)urea], the S35 result was “C (0.20 < C ≦ 0.40)”.

Consider `COc1cc2ncnc(Oc3cccc(NC(=O)Nc4cc(C(C)(C)C)nn4-c4ccc(C)cc4C)c3)c2cc1OC` [Ex 282, 1-(3-tert-butyl-1-(2,4-dimethylphenyl)-1H-pyrazol-5-yl)-3-(3-(6,7-dimethoxyquinazolin-4-yloxy)phenyl)urea], for which the S35 entry is on record as “C (0.20 < C ≦ 0.40)”.

In the case of `COCCOc1cc2ncnc(Sc3cccc(NC(=O)Nc4cc(C(C)(C)C)nn4-c4ccc(C)cc4C)c3)c2cc1OC` [Ex 283, 1-(3-tert-butyl-1-(2,4-dimethylphenyl)-1H-pyrazol-5-yl)-3-(3-(6-methoxy-7-(2-methoxyethoxy)quinazolin-4-ylthio)phenyl)urea], the S35 result was “C (0.20 < C ≦ 0.40)”.

As to `COc1cc2ncnc(Sc3cccc(NC(=O)Nc4cc(C(C)(C)C)nn4-c4ccc(C)cc4C)c3)c2cc1OC` [Ex 284, 1-(3-tert-butyl-1-(2,4-dimethylphenyl)-1H-pyrazol-5-yl)-3-(3-(6,7-dimethoxyquinazolin-4-ylthio)phenyl)urea], the S35 entry is on record as “C (0.20 < C ≦ 0.40)”.

For `COc1cc2ncnc(Oc3cccc(NC(=O)Nc4cc(C(C)(C)C)nn4-c4cccc(C)c4)c3)c2cc1OC` [Ex 285, 1-(3-tert-butyl-1-m-tolyl-1H-pyrazol-5-yl)-3-(3-(6,7-dimethoxyquinazolin-4-yloxy)phenyl)urea], the S35 entry was “D (D > 0.40)”.

For the compound `COc1cc2ncnc(Sc3cccc(NC(=O)Nc4cc(C(C)(C)C)nn4-c4cccc(C)c4)c3)c2cc1OC` [Ex 286, 1-(3-tert-butyl-1-m-tolyl-1H-pyrazol-5-yl)-3-(3-(6,7-dimethoxyquinazolin-4-ylthio)phenyl)urea], the S35 entry was “D (D > 0.40)”.

On to `COCCOc1cc2ncnc(Sc3cccc(NC(=O)Nc4cc(C(C)(C)C)nn4-c4cccc(C)c4)c3)c2cc1OC` [Ex 287, 1-(3-tert-butyl-1-m-tolyl-1H-pyrazol-5-yl)-3-(3-(6-methoxy-7-(2-methoxyethoxy)quinazolin-4-ylthio)phenyl)urea], for which the S35 result was “D (D > 0.40)”.

Regarding `COc1cc2ncnc(Oc3cccc(NC(=O)Nc4cc(C(C)(C)C)nn4-c4ccc(C)cc4)c3C)c2cc1OC` [Ex 288, 1-(3-tert-butyl-1-p-tolyl-1H-pyrazol-5-yl)-3-(3-(6,7-dimethoxyquinazolin-4-yloxy)-2-methylphenyl)urea], the S35 entry is “C (0.20 < C ≦ 0.40)”.

Consider `COc1cc2ncnc(Oc3cccc(NC(=O)Nc4cc(C(C)(C)C)nn4-c4ccccc4)c3C)c2cc1OC` [Ex 289, 1-(3-tert-butyl-1-phenyl-1H-pyrazol-5-yl)-3-(3-(6,7-dimethoxyquinazolin-4-yloxy)-2-methylphenyl)urea], for which the S35 entry is “C (0.20 < C ≦ 0.40)”.

In the case of `COc1cc2ncnc(Oc3cccc(NC(=O)Nc4cc(C(C)(C)C)on4)c3C)c2cc1OC` [Ex 290, 1-(5-tert-butylisoxazol-3-yl)-3-(3-(6,7-dimethoxyquinazolin-4-yloxy)-2-methylphenyl)urea], the S35 entry was “C (0.20 < C ≦ 0.40)”.

On to `COc1cc2ncnc(Oc3cccc(NC(=O)Nc4cc(C(F)(F)F)nn4-c4ccccc4)c3C)c2cc1OC` [Ex 291, 1-(3-(6,7-Dimethoxyquinazolin-4-yloxy)-2-methylphenyl)-3-(1-phenyl-3-(trifluoromethyl)-1H-pyrazol-5-yl)urea], for which the S35 result is “B (0.10 < B ≦ 0.20)”.

Consider `COc1cc2ncnc(Oc3cc(NC(=O)Nc4cc(C(C)(C)F)no4)ccc3F)c2cc1OC` [Ex 293, 1-(3-(6,7-dimethoxyquinazolin-4-yloxy)-4-fluorophenyl)-3-(3-(2-fluoropropan-2-yl)isoxazol-5-yl)urea], for which the S35 entry is “C (0.20 < C ≦ 0.40)”.

`COc1cc2ncnc(Oc3cc(NC(=O)Nc4cc(C(C)(CF)CF)on4)ccc3F)c2cc1OC` [Ex 294, 1-(5-(1,3-difluoro-2-methylpropan-2-yl)isoxazol-3-yl)-3-(3-(6,7-dimethoxyquinazolin-4-yloxy)-4-fluorophenyl)urea]: the S35 entry is “D (D > 0.40)”.

For `COc1cc2ncnc(Oc3cccc(NC(=O)Nc4cc(C(C)(C)C)nn4-c4ccccc4)c3F)c2cc1OC` [Ex 295, 1-(3-tert-butyl-1-phenyl-1H-pyrazol-5-yl)-3-(3-(6,7-dimethoxyquinazolin-4-yloxy)-2-fluorophenyl)urea], the S35 result is on record as “C (0.20 < C ≦ 0.40)”.

As to `COc1cc2ncnc(Oc3cccc(NC(=O)Nc4cc(C(C)(C)F)no4)c3F)c2cc1OC` [Ex 296, 1-(3-(6,7-dimethoxyquinazolin-4-yloxy)-2-fluorophenyl)-3-(3-(2-fluoropropan-2-yl)isoxazol-5-yl)urea], the S35 entry was “B (0.10 < B ≦ 0.20)”.

As to `COc1cc2ncnc(Oc3cccc(NC(=O)Nc4cc(C(C)(CF)CF)on4)c3F)c2cc1OC` [Ex 297, 1-(5-(1,3-difluoro-2-methylpropan-2-yl)isoxazol-3-yl)-3-(3-(6,7-dimethoxyquinazolin-4-yloxy)-2-fluorophenyl)urea], the S35 entry is recorded as “C (0.20 < C ≦ 0.40)”.

`COc1cc2ncnc(Oc3ccc(Cl)c(NC(=O)Nc4cc(C(C)(C)C)nn4-c4ccc(C)cc4)c3)c2cc1OC` [Ex 298, 1-(3-tert-butyl-1-p-tolyl-1H-pyrazol-5-yl)-3-(2-chloro-5-(6,7-dimethoxyquinazolin-4-yloxy)phenyl)urea]: the S35 entry is reported as “D (D > 0.40)”.

As for `COc1cc2ncnc(Oc3ccc(Cl)c(NC(=O)Nc4cc(C(C)(C)C)on4)c3)c2cc1OC` [Ex 299, 1-(5-tert-butylisoxazol-3-yl)-3-(2-chloro-5-(6,7-dimethoxyquinazolin-4-yloxy)phenyl)urea], the S35 result is “C (0.20 < C ≦ 0.40)”.

As to `COc1cc2ncnc(Oc3ccc(Cl)c(NC(=O)Nc4cc(C(F)(F)F)nn4-c4ccccc4)c3)c2cc1OC` [Ex 300, 1-(2-chloro-5-(6,7-dimethoxyquinazolin-4-yloxy)phenyl)-3-(1-phenyl-3-(trifluoromethyl)-1H-pyrazol-5-yl)urea], the S35 entry is on record as “C (0.20 < C ≦ 0.40)”.

On to `COc1cc2ncnc(Oc3ccc(Cl)c(NC(=O)Nc4cc(C(C)(C)C)nn4-c4ccccc4)c3)c2cc1OC` [Ex 301, 1-(3-tert-butyl-1-phenyl-1H-pyrazol-5-yl)-3-(2-chloro-5-(6,7-dimethoxyquinazolin-4-yloxy)phenyl)urea], for which the S35 result is given as “D (D > 0.40)”.

These data come from US9730937B2, “RAF kinase modulator compounds and methods of use thereof” (AMBIT BIOSCIENCES CORPORATION, priority 2008, dated 2017).
